Measured values reported in ChEMBL document CHEMBL3797052 (Eur J Med Chem, 2016).

Experiments:
[1] = Antiproliferative activity against human SKOV3 cells assessed as growth inhibition after 48 hrs by sulforhodamine B assay; type: functional; conditions: SK-OV-3, 48 h; for CC50: read-out: LC50 (the source's name)
[2] = Antiproliferative activity against human SNB19 cells assessed as cell growth at 10^-6 M after 48 hrs by sulforhodamine B assay; type: functional; conditions: SNB-19, 48 h, read-out: Activity
[3] = Antiproliferative activity against human COLO205 cells assessed as cell growth at 10^-8 M after 48 hrs by sulforhodamine B assay; type: functional; conditions: COLO 205, 48 h, read-out: Activity
[4] = Antiproliferative activity against human HOP62 cells assessed as cell growth at 10^-4 M after 48 hrs by sulforhodamine B assay; type: functional; conditions: HOP-62, 48 h, read-out: Activity
786-0 = assay: Antiproliferative activity against human 786-0 cells assessed as cell growth at […] after 48 hrs by sulforhodamine B assay; type: functional; conditions: 786-0, 48 h, read-out: Activity
[5] = Antiproliferative activity against human HOP92 cells assessed as cell growth at 10^-4 M after 48 hrs by sulforhodamine B assay; type: functional; conditions: HOP-92, 48 h, read-out: Activity
CYP2D6 = CYP2D6 (Homo sapiens, UniProt P10635); assay: Inhibition of recombinant human CYP2D6 assessed as remaining enzyme activity using CYP2D6 blue as substrate at 10 uM after 5 mins in presence of NADP by fluorescence plate reader analysis; type: ADME; conditions: recombinant human CYP2D6, probe CYP2D6 blue, read-out: Activity
NCI-H322M = assay: Antiproliferative activity against human NCI-H322M cells assessed as cell growth at 10^-7 M after 48 hrs by sulforhodamine B assay; type: functional; conditions: read-out: Activity
EKVX = assay: Antiproliferative activity against human EKVX cells assessed as cell growth at 10^-6 M after 48 hrs by sulforhodamine B assay; type: functional; conditions: read-out: Activity
NCI-H23 = assay: Antiproliferative activity against human NCI-H23 cells assessed as cell growth at 10^-6 M after 48 hrs by sulforhodamine B assay; type: functional; conditions: NCI-H23, 48 h, read-out: Activity
[6] = Antiproliferative activity against human OVCAR3 cells assessed as cell growth at 10^-8 M after 48 hrs by sulforhodamine B assay; type: functional; conditions: OVCAR-3, 48 h, read-out: Activity
[7] = Antiproliferative activity against human COLO205 cells assessed as cell growth at 10^-6 M after 48 hrs by sulforhodamine B assay; type: functional; conditions: COLO 205, 48 h, read-out: Activity
SK-MEL-28 = assay: Antiproliferative activity against human SK-MEL-28 cells assessed as cell growth at 10^-7 M after 48 hrs by sulforhodamine B assay; type: functional; conditions: SK-MEL-28, 48 h, read-out: Activity
KM12 = assay: Antiproliferative activity against human KM12 cells assessed as cell growth at 10^-4 M after 48 hrs by sulforhodamine B assay; type: functional; conditions: KM12, 48 h, read-out: Activity
[8] = Antiproliferative activity against human LOXIMVI cells assessed as cell growth at 10^-6 M after 48 hrs by sulforhodamine B assay; type: functional; conditions: LOX IMVI, read-out: Activity
[9] = Antiproliferative activity against human OVCAR4 cells assessed as cell growth at 10^-6 M after 48 hrs by sulforhodamine B assay; type: functional; conditions: OVCAR-4, 48 h, read-out: Activity
MDA-MB-435 = assay: Antiproliferative activity against human MDA-MB-435 cells assessed as cell growth at 10^-7 M after 48 hrs by sulforhodamine B assay; type: functional; conditions: MDA-MB-435, 48 h, read-out: Activity
K562 [10] = assay: Antiproliferative activity against human K562 cells assessed as cell growth at 10^-7 M after 48 hrs by sulforhodamine B assay; type: functional; conditions: K562, 48 h, read-out: Activity
K562 [11] = assay: Antiproliferative activity against human K562 cells assessed as cell growth at 10^-8 M after 48 hrs by sulforhodamine B assay; type: functional; conditions: K562, 48 h, read-out: Activity
CYP1A2 = molecular target: T1, CYP1A2 (Homo sapiens, UniProt P05177); assay: Inhibition of recombinant human CYP1A2 assessed as remaining enzyme activity using CYP1A2 blue as substrate at 10 uM after 5 mins in presence of NADP by fluorescence plate reader analysis; type: ADME; conditions: recombinant human CYP1A2, probe CYP1A2 blue, read-out: Activity
T1 sequence (P05177 whole entry): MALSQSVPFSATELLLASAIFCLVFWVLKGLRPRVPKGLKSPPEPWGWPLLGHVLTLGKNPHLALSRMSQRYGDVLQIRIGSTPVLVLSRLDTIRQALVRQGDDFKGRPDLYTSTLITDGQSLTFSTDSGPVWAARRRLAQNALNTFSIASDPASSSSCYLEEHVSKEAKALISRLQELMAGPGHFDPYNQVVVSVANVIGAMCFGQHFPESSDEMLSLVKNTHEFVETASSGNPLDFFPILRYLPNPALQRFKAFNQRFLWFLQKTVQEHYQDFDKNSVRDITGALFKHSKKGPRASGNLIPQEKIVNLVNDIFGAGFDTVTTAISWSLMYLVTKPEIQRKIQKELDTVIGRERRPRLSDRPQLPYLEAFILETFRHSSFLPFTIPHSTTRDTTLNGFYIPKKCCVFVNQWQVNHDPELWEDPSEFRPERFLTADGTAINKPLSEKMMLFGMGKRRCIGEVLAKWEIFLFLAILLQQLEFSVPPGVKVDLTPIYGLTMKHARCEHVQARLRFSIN

SK-MEL-5 = assay: Antiproliferative activity against human SK-MEL-5 cells assessed as cell growth at 10^-6 M after 48 hrs by sulforhodamine B assay; type: functional; conditions: SK-MEL-5, 48 h, read-out: Activity
[12] = Antiproliferative activity against human TK10 cells assessed as cell growth at 10^-6 M after 48 hrs by sulforhodamine B assay; type: functional; conditions: TK-10, 48 h, read-out: Activity
[13] = Antiproliferative activity against human SW620 cells assessed as cell growth at 10^-6 M after 48 hrs by sulforhodamine B assay; type: functional; conditions: SW-620, 48 h, read-out: Activity
ACHN = assay: Antiproliferative activity against human ACHN cells assessed as growth inhibition after 48 hrs by sulforhodamine B assay; type: functional
[14] = Antiproliferative activity against human UACC257 cells assessed as cell growth at 10^-7 M after 48 hrs by sulforhodamine B assay; type: functional; conditions: UACC-257, 48 h, read-out: Activity
[15] = Antiproliferative activity against human OVCAR4 cells assessed as growth inhibition after 48 hrs by sulforhodamine B assay; type: functional; conditions: OVCAR-4, 48 h; for CC50: read-out: LC50 (the source's name)
[16] = Antiproliferative activity against human HL-60(TB) cells assessed as cell growth at 10^-7 M after 48 hrs by sulforhodamine B assay; type: functional; conditions: HL-60, 48 h, read-out: Activity
[17] = Antiproliferative activity against human COLO205 cells assessed as cell growth at 10^-7 M after 48 hrs by sulforhodamine B assay; type: functional; conditions: COLO 205, 48 h, read-out: Activity
[18] = Antiproliferative activity against human SF539 cells assessed as growth inhibition after 48 hrs by sulforhodamine B assay; type: functional; conditions: SF-539, 48 h

Sequence of CYP2D6 (P10635 whole entry): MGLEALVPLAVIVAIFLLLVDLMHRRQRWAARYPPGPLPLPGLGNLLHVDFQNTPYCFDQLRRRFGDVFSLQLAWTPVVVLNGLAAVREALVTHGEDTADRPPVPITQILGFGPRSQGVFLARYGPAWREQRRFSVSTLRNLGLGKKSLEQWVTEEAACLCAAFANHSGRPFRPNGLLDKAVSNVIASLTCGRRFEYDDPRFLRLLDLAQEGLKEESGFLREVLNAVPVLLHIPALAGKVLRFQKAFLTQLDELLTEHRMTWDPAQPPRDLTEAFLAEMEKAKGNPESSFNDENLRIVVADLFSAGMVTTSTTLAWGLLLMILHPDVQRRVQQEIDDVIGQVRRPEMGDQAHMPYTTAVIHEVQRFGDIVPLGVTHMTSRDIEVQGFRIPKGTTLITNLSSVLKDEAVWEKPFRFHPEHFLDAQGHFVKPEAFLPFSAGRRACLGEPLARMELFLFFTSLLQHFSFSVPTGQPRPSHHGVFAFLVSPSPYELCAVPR

| SMILES | GI50 [1] [µM] | TGI [1] [µM] | CC50 [1] [µM] | growth at 1 µM [2] [%] | growth at 0.01 µM [3] [%] | growth at 100 µM [4] [%] | growth at 100 µM (786-0) [%] | growth at 100 µM [5] [%] | activity at 5 min, 10 µM (CYP2D6) [%] | growth at 0.1 µM (NCI-H322M) [%] | growth at 1 µM (EKVX) [%] | growth at 1 µM (NCI-H23) [%] | growth at 0.01 µM [6] [%] | growth at 1 µM [7] [%] | growth at 0.1 µM (SK-MEL-28) [%] | GI50 (ACHN) [µM] | TGI (ACHN) [µM] | GI50 [15] [µM] | TGI [15] [µM] | TGI [18] [µM] | other results |
| --- | --- | --- | --- | --- | --- | --- | --- | --- | --- | --- | --- | --- | --- | --- | --- | --- | --- | --- | --- | --- | --- |
| CNC(=O)c1cc(Oc2ccc3nc(NC(=O)Nc4ccc(Cl)c(C(F)(F)F)c4)sc3c2)ccn1 | 1.89 | 4.21 | 9.39 | 85 | 98 | -34 | -77 | -64 | 98.7 | 103 | 82 | 88 | 109 | 86 | 92 | 1.85 | 3.8 | 1.59 | 3.31 | 3.9 | growth at 100 µM (KM12): 45%; growth at 1 µM [8]: 87%; growth at 1 µM [9]: 82%; growth at 0.1 µM (MDA-MB-435): 92%; growth at 0.1 µM (K562 [10]): 104%; growth at 0.01 µM (K562 [11]): 107%; activity at 5 min, 10 µM (CYP1A2): 106%; growth at 1 µM (SK-MEL-5): 87%; growth at 1 µM [12]: 109%; growth at 1 µM [13]: 91%; LC50 (ACHN): 7.82 µM; growth at 0.1 µM [14]: 98%; growth at 0.1 µM [16]: 110%; growth at 0.1 µM [17]: 106%; GI50 [18]: 1.78 µM |
| CNC(=O)c1cc(Oc2ccc(NC(=O)Nc3ccc(Cl)c(C(F)(F)F)c3)cc2)ccn1 [SORAFENIB] | 2.51 | 12.6 | 63.1 | – | – | – | – | – | – | – | – | – | – | – | – | 2.51 | 12.6 | 3.16 | 12.6 | 10 | CC50 [15]: 100 µM |
| CNC(=O)c1cc(Oc2ccc3nc(NC(=O)Nc4cc(C(F)(F)F)cc(C(F)(F)F)c4)sc3c2)ccn1 | 1.43 | 3.18 | 7.09 | 62 | 90 | -76 | -94 | -77 | 91.5 | 102 | 60 | 36 | 101 | 46 | 96 | 0.542 | 1.98 | 0.958 | 2.73 | 2.8 | growth at 100 µM (KM12): -61%; growth at 1 µM [8]: 63%; growth at 1 µM [9]: 49%; growth at 0.1 µM (MDA-MB-435): 95%; growth at 0.1 µM (K562 [10]): 97%; growth at 0.01 µM (K562 [11]): 104%; activity at 5 min, 10 µM (CYP1A2): 110%; growth at 1 µM (SK-MEL-5): 36%; growth at 1 µM [12]: 87%; growth at 1 µM [13]: 80%; LC50 (ACHN): 5.7 µM; growth at 0.1 µM [14]: 114%; CC50 [15]: 7.58 µM; growth at 0.1 µM [16]: 31%; growth at 0.1 µM [17]: 96%; GI50 [18]: 1.24 µM; LC50 [18]: 6.33 µM |
| CNC(=O)c1cc(Oc2ccc3nc(NC(=O)c4cc(C(F)(F)F)cc(C(F)(F)F)c4)sc3c2)ccn1 | 2.52 | 7.98 | 73.7 | 96 | 99 | -71 | -71 | -41 | 82.2 | 93 | 90 | 89 | 104 | 99 | 96 | 3.26 | 11.8 | 3.12 | 27.2 | 14.8 | growth at 100 µM (KM12): -52%; growth at 1 µM [8]: 94%; growth at 1 µM [9]: 89%; growth at 0.1 µM (MDA-MB-435): 92%; growth at 0.1 µM (K562 [10]): 98%; growth at 0.01 µM (K562 [11]): 103%; activity at 5 min, 10 µM (CYP1A2): 98.3%; growth at 1 µM (SK-MEL-5): 83%; growth at 1 µM [12]: 97%; growth at 1 µM [13]: 105%; LC50 (ACHN): 43.2 µM; growth at 0.1 µM [14]: 95%; CC50 [15]: > 100 µM; growth at 0.1 µM [16]: 97%; growth at 0.1 µM [17]: 91%; GI50 [18]: 3.14 µM; LC50 [18]: 71.1 µM |
